Measurements reported in ChEMBL document CHEMBL3045079, “Synthesis, antimalarial and antibacterial activities of 3-amino acid- and aryl amine-substituted 2-methyl-3H-quinalzolin-4-ones” (2010).
Calls of active or inactive are those of the source. No cut-off for these calls is given here.

Assays:
Escherichia coli = assay: Antibacterial activity against Escherichia coli at 100 ug after 24 hr by cup-plate method; format: functional, organism-based
Staphylococcus aureus = assay: Antibacterial activity against Staphylococcus aureus at 100 ug after 24 hr by cup-plate method; format: functional, organism-based
Plasmodium yoelii [1] = assay: Antimalarial activity against Plasmodium yoelii N-67 infected Swiss mouse assessed as mean survival time at 200 mg/kg, ip qd administered 4 days measured 24 hr post last treatment (reference value: 8.2 +/- 0.86 days); format: functional; settings: route intraperitoneal
Plasmodium yoelii [2] = assay: Antimalarial activity against Plasmodium yoelii N-67 infected Swiss mouse assessed as parasitemia at 200 mg/kg, ip qd administered 4 days measured 24 hr post last treatment (reference value: 12.36 +/- 1.14 %); format: functional; settings: route intraperitoneal
Plasmodium yoelii [3] = assay: Antimalarial activity against Plasmodium yoelii N-67 infected Swiss mouse assessed as parasitemia at 200 mg/kg, ip qd administered 4 days measured on day 7 (reference value: 19.5 +/- 0.76 %); format: functional; settings: route intraperitoneal

| Structure (SMILES) | Activity (Escherichia coli) | Activity (Staphylococcus aureus) | MST (Plasmodium yoelii [1]) | Activity (Plasmodium yoelii [2]) | Activity (Plasmodium yoelii [3]) |
| --- | --- | --- | --- | --- | --- |
| Cc1nc2ccccc2c(=O)n1-c1ccc(O)cc1 | inactive | inactive | 6.8 days | 10.52% | 16.8% |
| Cc1nc2ccccc2c(=O)n1[C@@H](CCCCN)C(=O)O | inactive | inactive | 6.8 days | 9.78% | 17.5% |
| Cc1nc2ccccc2c(=O)n1[C@@H](CCC(=O)O)C(=O)O | inactive | inactive | 7.8 days | 9.6% | 18.45% |
| Cc1nc2ccccc2c(=O)n1[C@@H](CS)C(=O)O | inactive | inactive | 7.4 days | 11.9% | 25% |
| Cc1nc2ccccc2c(=O)n1CC(=O)O | inactive | inactive | 6.6 days | 10.5% | 17.2% |
| Cc1nc2ccccc2c(=O)n1-c1ccc([N+](=O)[O-])cc1 | inactive | inactive | 7 days | 10.43% | 25.5% |
